Ten compounds from ChEMBL document CHEMBL1201862, “PubChem BioAssay data set” (2004) can be followed below.

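Method: 48-hour compound exposure of cells in 96-well plates, five concentrations, linear interpolation of endpoints. GI50 marks 50% less growth.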 Calls of active or inactive are those of the source. No stated cut-off is given here; in the data, active = GI50 up to about 1.1 µM and inactive = higher.

Holding throughout (experiment): NCI-60 cell line screen, 48 h
In assay [1] the test system is NCI-H23.
Assay [2] deals with M14.
For assay [3], the system named is NCI-H460.
For assay [4], the system named is SF-539.
Assay [5] deals with OVCAR-8.
Assay [6] has as its system ACHN.
In assay [7] the test system is SR.
For assay [8], the system named is BT-549.
Assay [9] has as its system EKVX.
Assay [10] concerns HOP-62.
For assay [11], the system named is 786-0.
Assay [12] relates to A498.
Assay [13] has as its system Malme-3M.
For assay [14], the system named is UACC-62.
Assay [15] has as its system MDA-MB-231.
The test system of assay [16] is CCRF-CEM.
Assay [17] concerns UO-31.
In assay [18] the test system is PC-3.
The subject of assay [19] is NCI-H226.
Assay [20] has as its system OVCAR-4.

Turning to `COc1cc(C(c2cc3c(cc2O)OCO3)N2CCCCC2)cc(OC)c1OC` (stereo not given), the GI50 in assay [1] was 15.2 µM (inactive); in [2], 6.28 µM (inactive); in assay [3] it was 21.8 µM (inactive); in [4] it was 17.9 µM (inactive); in assay [5] it was 13.2 µM (inactive); in assay [6] it was 17.1 µM (inactive). Moreover, the GI50 in [7] is 2.33 µM (inactive); in [8] it was 12 µM (inactive); in assay [9], 18.7 µM (inactive); in assay [10] it was 30 µM (inactive); in assay [11], 5.86 µM (inactive); in assay [12] it was 19.5 µM (inactive). Moreover, the GI50 in [13] is 12.8 µM (inactive); in [14], 16.4 µM (inactive); in assay [15], 15 µM (inactive); in assay [16] it was 1.85 µM (inactive); in [17], 14.8 µM (inactive); in [18], 15.8 µM (inactive). Further, the GI50 was 16.1 µM (inactive) in [19] and 11.9 µM (inactive) in [20].

Regarding `CCOc1ccc(-n2c(=O)c3nn4c(=O)n(-c5ccc(OCC)cc5)c(=O)c4nn3c2=O)cc1`, the GI50 in [1], in [2], in assay [3], in [4], in [5] and in [6] was > 100 µM (inactive) throughout. Further, the GI50 is > 100 µM (inactive) in assay [7]; 64.6 µM (inactive) in assay [8]; > 100 µM (inactive) in [9]; 77.8 µM (inactive) in [10]; 70.1 µM (inactive) in [11]; 18.6 µM (inactive) in [12]. Further, the GI50 in assay [13] is > 100 µM (inactive); in [14], > 100 µM (inactive); in assay [15], 71.8 µM (inactive); in assay [16], > 10 µM (inactive); in [17], > 100 µM (inactive); in assay [18] it was > 100 µM (inactive). The GI50 in assay [19] and in assay [20] was > 100 µM (inactive) throughout.

`[N-]=[N+]=Nc1ccc2c(c1)Sc1ccccc1N2CCCCCl`: the GI50 in assay [1] was 41.8 µM (inactive); in assay [2], > 100 µM (inactive); in assay [3] it was 83.2 µM (inactive); in assay [4], > 100 µM (inactive); in assay [5] it was 69.8 µM (inactive); in [6], > 100 µM (inactive). The GI50 was 30.9 µM (inactive) in [7]; 41.6 µM (inactive) in assay [8]; 56 µM (inactive) in [9]; > 100 µM (inactive) in [10]; > 100 µM (inactive) in [11]; > 100 µM (inactive) in [12]. For the same compound, the GI50 in assay [13] is 37.1 µM (inactive); in [14], 99.8 µM (inactive); in [15], > 100 µM (inactive); in assay [16] it was 36.7 µM (inactive); in assay [17], > 100 µM (inactive); in assay [18], 41.3 µM (inactive). The GI50 in [19] is 48.9 µM (inactive); in assay [20] it was 80.4 µM (inactive).

With `O=C(CC(c1ccccc1)N1CCCCC1)c1ccccc1` (stereo not given), the GI50 in [1] is 16 µM (inactive); in assay [2] it was 21.5 µM (inactive); in assay [3], 13 µM (inactive); in assay [4] it was 19 µM (inactive); in assay [5] it was 15.5 µM (inactive); in assay [6], 17 µM (inactive). For the same compound, the GI50 in assay [7] was 1.7 µM (inactive); in assay [8], 18.2 µM (inactive); in [9], 17.7 µM (inactive); in assay [10], 17.7 µM (inactive); in [11], 11.2 µM (inactive); in [12], 15.6 µM (inactive). Also, the GI50 is 16 µM (inactive) in assay [13]; 16.6 µM (inactive) in assay [14]; 18.9 µM (inactive) in assay [15]; 2.09 µM (inactive) in [16]; 19.2 µM (inactive) in assay [17]; 15 µM (inactive) in assay [18]. For the same compound, the GI50 in [19] and in assay [20] was 18.4 µM (inactive) throughout.

For the compound `COc1ccc(/N=N/C(=NNC(=O)c2ccc(C)cc2)c2ccc(N(C)C)cc2)cc1`, the GI50 in assay [1] was 26.4 µM (inactive); in assay [2], 43.1 µM (inactive); in assay [3] it was 39.7 µM (inactive); in assay [4], > 100 µM (inactive); in [5], 40.3 µM (inactive); in assay [6], 35.1 µM (inactive). Moreover, the GI50 in assay [7] is 23.1 µM (inactive); in [8] it was 27.7 µM (inactive); in assay [9], 37.7 µM (inactive); in assay [10], 49.1 µM (inactive); in [11], 39.1 µM (inactive); in [12], 52 µM (inactive). For the same compound, the GI50 in assay [13] was 34.6 µM (inactive); in [14], 25.1 µM (inactive); in assay [15] it was 64.4 µM (inactive); in assay [16], 14 µM (inactive); in assay [17], 52.2 µM (inactive); in assay [18] it was 57.7 µM (inactive). Moreover, the GI50 is 39.8 µM (inactive) in [19] and 31.8 µM (inactive) in [20].

For `Nc1nc(Sc2ccc([N+](=O)[O-])cn2)c2nc[nH]c2n1`, the GI50 was 8.05 µM (inactive) in assay [1]; 3.16 µM (inactive) in [2]; 4.88 µM (inactive) in [3]; 6.24 µM (inactive) in assay [4]; 4.81 µM (inactive) in assay [5]; 12.3 µM (inactive) in assay [6]. The GI50 in [7] is 3.46 µM (inactive); in [8], 8.45 µM (inactive); in assay [9], 7.53 µM (inactive); in [10], 4.6 µM (inactive); in assay [11] it was 5.74 µM (inactive); in assay [12] it was 11.8 µM (inactive). The GI50 was 11.4 µM (inactive) in assay [13]; 2.94 µM (inactive) in [14]; 5.9 µM (inactive) in assay [15]; 2.77 µM (inactive) in [16]; 3.99 µM (inactive) in assay [17]; 14 µM (inactive) in assay [18]. Also, the GI50 in assay [19] is 12.6 µM (inactive); in [20], 9.18 µM (inactive).

With `ONCCCn1cnc2c(NC3CC3)ncnc21`, the GI50 in assay [1], in assay [2], in assay [3], in assay [4], in assay [5] and in [6] was > 100 µM (inactive) throughout. The GI50 in assay [7], in assay [8], in assay [9], in [10], in [11] and in assay [12] was > 100 µM (inactive) each time. Also, the GI50 in [13], in assay [14], in assay [15], in [16], in [17] and in [18] was > 100 µM (inactive) throughout. The GI50 in assay [19] and in [20] was > 100 µM (inactive) each time.

As to `CC1(C)OCC(C2OC(OC(=O)c3ccc([N+](=O)[O-])cc3)C3OC(C)(C)OC23)O1` (stereo not given), the GI50 is > 100 µM (inactive) in [1]; > 100 µM (inactive) in assay [2]; > 100 µM (inactive) in [3]; > 100 µM (inactive) in assay [4]; > 100 µM (inactive) in assay [5]; 60.5 µM (inactive) in assay [6]. For the same compound, the GI50 is > 100 µM (inactive) in [7]; > 100 µM (inactive) in assay [8]; 61.8 µM (inactive) in assay [9]; 27.3 µM (inactive) in [10]; 51.8 µM (inactive) in [11]; > 100 µM (inactive) in assay [12]. Moreover, the GI50 in assay [13] was > 100 µM (inactive); in assay [14], > 100 µM (inactive); in assay [15], > 100 µM (inactive); in assay [16] it was > 100 µM (inactive); in assay [17], 66.1 µM (inactive); in [18] it was > 100 µM (inactive). Moreover, the GI50 in assay [19] and in [20] was > 100 µM (inactive) throughout.

With `CN(C)c1ccc(/C=c2/c3ccccc3n3c2cc(/C=C/c2ccccc2)[n+]3C)cc1`, the GI50 in [1] is 0.0783 µM (active); in assay [2], 0.218 µM (active); in assay [3], 0.185 µM (active); in assay [4] it was 0.038 µM (active); in assay [5], 0.0773 µM (active); in assay [6], 0.255 µM (active). Further, the GI50 in [7] was 0.0367 µM (active); in [8] it was 0.08 µM (active); in assay [9] it was 0.265 µM (active); in assay [10], 0.0893 µM (active); in [11], 0.0815 µM (active); in assay [12], 0.266 µM (active). Besides, the GI50 is 0.233 µM (active) in [13]; 0.281 µM (active) in [14]; 0.261 µM (active) in assay [15]; 0.0206 µM (active) in [16]; 0.344 µM (active) in assay [17]; 0.0933 µM (active) in assay [18]. For the same compound, the figures for the GI50 in assay [19] and in assay [20] were 0.11 µM (active) and 0.286 µM (active), respectively.

With `Cc1ccnc2[nH]c3ccccc3c(=O)c12`, the GI50 is 22.9 µM (inactive) in assay [1]; 26.8 µM (inactive) in assay [2]; 19 µM (inactive) in [3]; 17.9 µM (inactive) in assay [4]; 27 µM (inactive) in assay [5]; 20.5 µM (inactive) in assay [6]. In addition, the GI50 in assay [7] is 11.5 µM (inactive); in [8], 30.1 µM (inactive); in [9], 28.8 µM (inactive); in assay [10], 43.8 µM (inactive); in assay [11] it was 41.2 µM (inactive); in [12] it was 28.8 µM (inactive). The GI50 is 19.2 µM (inactive) in [13]; 16.9 µM (inactive) in [14]; 38.8 µM (inactive) in assay [15]; 36.6 µM (inactive) in assay [16]; 18 µM (inactive) in [17]; 21.8 µM (inactive) in assay [18]. Besides, the GI50 in assay [19] is 24.7 µM (inactive); in [20], 29 µM (inactive).
